Source: patent US20260364027A1, “ENHANCER OF CARDIOLIPIN MOLECULAR SPECIES AS MITOCHONDRIAL COMPONENT” (WATANABE OYSTER LABORATORY, CO., LTD., priority 2022, published 2026)

Experiments:
[1] = background; compared with existing antioxidants; cited from earlier work
[2] = system: human renal proximal tubule cells (HK-2); experiment: Cardiolipin measurement by LC-MS/MS in HK-2 cells under oxidative stress stimulation (molecular species, total content, acyl groups); format: cell-based; conditions: oxidative stress (100 μM BSO) + DHMBA 250 or 500 μM
Protocol: FIG. 2 is an explanatory drawing for describing increase effects of DHMBA on CL molecular species under oxidative stress conditions. HK-2 cells were cultured with 100 μM BSO and 250 or 500 μM DHMBA, and then recovered and CL was measured using LC-MS/MS. Mean±SD (n=4).
FIG. 3 is an explanatory drawing for describing increase effects of DHMBA on total CL content under oxidative stress conditions. HK-2 cells were cultured with 100 μM BSO and 250 or 500 μM DHMBA, and then recovered and CL was measured using LC-MS/MS. Mean±SD (n=4).
FIG. 4 is an explanatory drawing for describing CL acyl group modification due to addition of DHMBA under oxidative stress conditions. HK-2 cells were cultured with 100 μM BSO and 250 or 500 μM DHMBA, and then recovered and CL was measured using LC-MS/MS. Mean±SD (n=4).
Human renal proximal tubule cells (HK-2) were subcultured in Dulbecco's Modified Eagle's Medium (DMEM, Nacalai Tesque) containing 10% fetal bovine serum and 1% penicillin-streptomycin at 37 °C in a 5% CO2 incubator. The following experiments were conducted using the oxidative stress inducer to confirm the cardiolipin increase effect of DHMBA on the oxidative stress.
HK-2 cells were seeded in a 6-well plate at a density of 1.0×10^5 cells/well and cultured for 24 hours. The cells were then divided into four groups with different stimulus conditions, and 2 mL thereof was added to each well.
The above-described four groups with the different stimulus conditions are as follows.
Control group (culture medium); oxidative stress group (final concentration 100 μM Oxidative Stress); oxidative stress+DHMBA 250 group (final concentration 100 μM Oxidative Stress+final concentration 250 μM DHMBA); and oxidative stress+DHMBA 500 group (final concentration 100 μM Oxidative Stress+final concentration 500 μM DHMBA).
After 24 hours, the cells were washed twice with phosphate-buffered saline (hereinafter referred to as PBS), and then 1 mL of PBS was added to each well and the cells were recovered using a scraper. In this cell suspension, 100 μL was used for protein quantification by a bicinchoninic acid (BCA) method. The protein concentration was used for correction of the cardiolipin concentration. The remaining cell suspension was centrifuged at 1,200 rpm for 5 minutes, the supernatant was removed, and then the precipitated cells were stored at −80 °C.
For the cardiolipin measurement, the total intracellular lipids were extracted in the same way as in the previous reports (Chen Z, et al. Metabolomics, 16: 115, 2020). […]
(§1) The data obtained were expressed as mean±standard deviation (SD), and statistical analysis was performed using JMP Pro 16 (SAS Institute Inc.). […]

Keap1-Nrf2 pathway = conditions: background, to date; cited from earlier work
mitochondria = conditions: under oxidative stress conditions; results so far; cited from earlier work
[3] = background, to date; cited from earlier work
HADHB = experiment: qPCR expression of CL remodeling/degradation-related gene HADHB in HK-2 cells under oxidative stress; format: cell-based, human; conditions: oxidative stress (100 μM BSO) + DHMBA 250 or 500 μM, 24 h, HK-2, β-actin corrected, control = 1
Protocol: (§2) FIG. 6 is an explanatory drawing for describing changes in the expression levels of genes related to CL remodeling and degradation of DHMBA under oxidative stress conditions. HK-2 cells were cultured with 100 μM BSO and 250 or 500 μM DHMBA, and then the expression levels of genes related to […] were measured by qPCR. Mean±SD (n=4).
(§3) Therefore, in the present invention, the analysis of the expression levels of genes related to cardiolipin biosynthesis, remodeling, and degradation in response to oxidative stress stimulation was verified.
(§4) HK-2 cells were seeded in a 6-well plate at a density of 5.0×10^4 cells/well and cultured for 24 hours.
(§5) Next, under the same stimulus conditions as described above, 2 mL thereof was added to each well. […] The concentration of the purified RNA was quantified by Nanodrop (Invitrogen). […]
(§6) The gene expression levels were measured according to a protocol for THUNDERBIRD (registered trademark) SYBR (registered trademark) qPCR Mix (TOYOBO). Measurements were performed using a CFX Connect™ real-time PCR analysis system (BioRad), and analyzed using a 2^−(ΔΔCT) method.
(§7) The gene expression level of the control group was set at 1 for comparison. The figures are expressed as mean±SD (n=4 for each group). […]
as §1

[4] = system: antioxidant gene groups (such as HO-1 and NQO1); conditions: background, to date; cited from earlier work
PNPLA8 = experiment: qPCR expression of CL remodeling/degradation-related gene PNPLA8 in HK-2 cells under oxidative stress; format: cell-based, human; conditions: oxidative stress (100 μM BSO) + DHMBA 250 or 500 μM, 24 h, HK-2, β-actin corrected, control = 1
Protocol: as §2, §3, §4, §5, §6, §7, §1

CDS2 = experiment: qPCR expression of CL biosynthesis-related gene CDS2 in HK-2 cells under oxidative stress; format: cell-based, human; conditions: oxidative stress (100 μM BSO) + DHMBA 250 or 500 μM, 24 h, HK-2, β-actin corrected, control = 1
Protocol: FIG. 5 is an explanatory drawing for describing changes in expression level of CL biosynthesis-related genes of DHMBA under oxidative stress conditions. HK-2 cells were cultured with 100 μM BSO and 250 or 500 μM DHMBA, and then the expression levels of CL biosynthesis-related genes were measured by qPCR. Mean±SD (n=4).
as §3, §4, §5, §6, §7, §1

COc1c(O)cc(CO)cc1O [DHMBA, 3,5-dihydroxy-4-methoxy benzyl alcohol]
Cytotoxicity [1]: lower cytotoxicity than existing antioxidants
Change in cardiolipin molecular species ([2]; 24 h, HK-2, n=4, vs control group): almost all the cardiolipin molecular species increased significantly
Change in saturated fatty acid chain FA16:0 of cardiolipin ([2]; HK-2, n=4): decreased
Change in unsaturated fatty acid chain FA18:1 of cardiolipin ([2]; HK-2, n=4): increased
Change in unsaturated fatty acid chain FA18:2 of cardiolipin ([2]; HK-2, n=4): increased
Activation of the Keap1-Nrf2 pathway (Keap1-Nrf2 pathway): confirmed
Protective effect on mitochondria (mitochondria): protective effect on mitochondria under oxidative stress conditions
Radical scavenging ability [3]: confirmed
HADHB gene expression level (HADHB): increased
Induction of the expression of antioxidant gene groups (such as HO-1 and NQO1) [4]: confirmed
PNPLA8 gene expression level (PNPLA8): decreased to the same level as the control group
CDS2 gene expression level (CDS2): decreased to the same level as the control group
